The values below come from US11000033B2, “Ketone or oxime compound, and herbicide” (NISSAN CHEMICAL CORPORATION, priority 2014, dated 2021).

What all share (assay type): in vivo
Data set [1] concerns Echinochloa oryzacola Vasing. The data set is described as follows: Test Example 2: herbicidal activity, application during weed generation in submerged conditions (symbol A). The settings on record: Table 23; application herbicide amount 320 g/ha; grade 0-5 by criteria of Test Example 1. The essentials: (§1)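 Scoring of herbicidal effect took place 3 weeks after treatment, using the criteria of the earlier test. Treatment was water-surface application of diluted emulsifiable compound at a set dose. Plants were at one- to two-leaf stage in submerged alluvial soil (4 cm depth), greenhouse 25-30° C.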

The next data set has as its system Scirpus juncoides. Briefly: Test Example 2: herbicidal activity, application during weed generation in submerged conditions (symbol B). Conditions: Table 23; application herbicide amount 320 g/ha; grade 0-5 by criteria of Test Example 1. The essentials:
as §1

The test system of another data set is Monochoria vaginalis. The data set is described as follows: Test Example 2: herbicidal activity, application during weed generation in submerged conditions (symbol C). Conditions: Table 23; application herbicide amount 320 g/ha; grade 0-5 by criteria of Test Example 1. An outline of the steps: as §1
The test system of data set [2] is Echinochloa crus-galli var. crus-galli. The data set is described as follows: Test Example 3: herbicidal effect by foliage application, Wagner pot (symbol H). Conditions: application herbicide amount 320 g/ha, Table 24. An outline of the steps: (§2)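 Foliar spray of a water-diluted emulsion at a predetermined herbicide amount, applied to 14-day-old plants. Seedlings were raised in flooded alluvial soil (0.1–0.5 cm water) at 25–30 °C in a greenhouse. Injury was rated after 3 weeks against fixed criteria.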

In the next data set the test system is Leptochloa chinensis. The data set is described as follows: Test Example 3: herbicidal effect by foliage application, Wagner pot (symbol D). Conditions: application herbicide amount 320 g/ha, Table 24. The essentials:
as §2

The next data set relates to Digitaria ciliaris. Briefly: Test Example 4: herbicidal effect by soil treatment (symbol F). Conditions: application herbicide amount 320 g/ha. The essentials:
(§3)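 Seeds were sown in sterilized diluvial soil, covered with about 1.5 cm of soil, and the soil surface was sprayed with a water-diluted emulsion of the compound at a predetermined rate. Plants grew in a greenhouse at 25° C. to 30° C.; effects were scored visually 3 weeks after application.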

A further data set deals with Setaria viridis. The data set is described as follows: Test Example 4: herbicidal effect by soil treatment (symbol G). Conditions: application herbicide amount 320 g/ha. An outline of the steps: as §3
A further data set has as its system Avena fatua. The data set is described as follows: Test Example 4: herbicidal effect by soil treatment (symbol I). The settings on record: application herbicide amount 320 g/ha. An outline of the steps: as §3
Data set [3] has as its system Alopecurus myosuroides. Briefly: Test Example 4: herbicidal effect by soil treatment (symbol J). The settings on record: application herbicide amount 320 g/ha. The essentials:
as §3

The test system of a further data set is Lolium multiflorum Lam. The data set is described as follows: Test Example 4: herbicidal effect by soil treatment (symbol K). Conditions: application herbicide amount 320 g/ha. The essentials:
as §3

The test system of data set [4] is Stellaria media. The data set is described as follows: Test Example 4: herbicidal effect by soil treatment (symbol P). Conditions: application herbicide amount 320 g/ha. An outline of the steps:
as §3

For a further data set, the system named is Veronica persica. The data set is described as follows: Test Example 4: herbicidal effect by soil treatment (symbol R). Conditions: application herbicide amount 320 g/ha. The essentials: as §3
The subject of another data set is rice. The data set is described as follows: Test Example 4: effect on crop by soil treatment (symbol b). Conditions: application herbicide amount 320 g/ha. An outline of the steps:
(§4)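 Diluvial soil (sterilized) in boxes; seeds placed spot-wise alongside weed species; ~1.5 cm covering soil. Greenhouse, 25–30° C.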

The subject of another data set is wheat. The data set is described as follows: Test Example 4: effect on crop by soil treatment (symbol e). The settings on record: application herbicide amount 320 g/ha. An outline of the steps:
as §4

Data set [5] deals with Echinochloa crus-galli var. crus-galli. The data set is described as follows: Test Example 5: herbicidal effect by foliage application, plastic box (symbol H). Conditions: 320 g/ha, 3 weeks after application. The essentials: (§5)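 Post-emergence spray; diluvial soil (sterilized), ~1.5 cm seed cover; greenhouse 25–30° C; 14-day-old plants; water-diluted emulsion at predetermined dose; visual score at 3 wk post-treatment.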

Data set [6] deals with Alopecurus myosuroides. The data set is described as follows: Test Example 5: herbicidal effect by foliage application, plastic box (symbol J). Conditions: 320 g/ha, 3 weeks after application. The essentials:
as §5

The subject of the next data set is Amaranthus retroflexus. Briefly: Test Example 5: herbicidal effect by foliage application, plastic box (symbol N). Conditions: 320 g/ha, 3 weeks after application. An outline of the steps: as §5
The next data set deals with Chenopodium album. The data set is described as follows: Test Example 5: herbicidal effect by foliage application, plastic box (symbol O). The settings on record: 320 g/ha, 3 weeks after application. An outline of the steps: as §5
Data set [7] has as its system Stellaria media. Briefly: Test Example 5: herbicidal effect by foliage application, plastic box (symbol P). Conditions: 320 g/ha, 3 weeks after application. An outline of the steps:
as §5

In the next data set the test system is rice plant. The data set is described as follows: Test Example 5: effect on crop by foliage application, plastic box (symbol b). The settings on record: 320 g/ha, 3 weeks after application. The essentials:
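Greenhouse test at 25° C. to 30° C. Seeds of crops and weeds were spot-sown in boxes of sterilized diluvial soil under roughly 1.5 cm soil cover, then grown for foliage treatment.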

For the compound `CON=C(CC1CC(OC(=O)C(C)(C)C)=C(c2c(C)cc(C)cc2OC)C1=O)C1CC1` (mixture of isomers) [13-006], the “Herbicidal effect grade, A: Echinochloa oryzacola Vasing.” value in data set [1] is recorded as 5 (Herbicidal ratio of 90% or more (almost completely withered)). Further, the “Herbicidal effect grade, B: Scirpus juncoides” value (“Herbicidal effect grade, B” below) in the data set on Scirpus juncoides was 3 (Herbicidal ratio of 40% or higher and lower than 70%). In addition, the “Herbicidal effect grade, C: Monochoria vaginalis” value (“Herbicidal effect grade, C” below) in the data set on Monochoria vaginalis is 4 (Herbicidal ratio of 70% or higher and lower than 90%). Besides, the “H (Echinochloa crus-galli var. crus-galli) herbicidal effect grade” value in [2] is 5 (Herbicidal ratio of 90% or more (almost completely withered)). Moreover, in the data set on Leptochloa chinensis, the “D (Leptochloa chinensis) herbicidal effect grade” value is on record as 5 (Herbicidal ratio of 90% or more (almost completely withered)). In the data set on Digitaria ciliaris, the “F: Digitaria ciliaris, herbicidal effect grade” value is reported as 5 (Herbicidal ratio of 90% or more (almost completely withered)). In addition, the “G: Setaria viridis, herbicidal effect grade” value in the data set with Setaria viridis is listed as 5 (Herbicidal ratio of 90% or more (almost completely withered)). In the data set with Avena fatua, the “I: Avena fatua, herbicidal effect grade” value is 0 (Herbicidal ratio of 5% or lower (almost no effect)). In addition, the “J: Alopecurus myosuroides, herbicidal effect grade” value in the data set on Alopecurus myosuroides [3] and in the data set on Alopecurus myosuroides [6] was 5 (Herbicidal ratio of 90% or more (almost completely withered)) throughout. Also, the “K: Lolium multiflorum Lam., herbicidal effect grade” value in the data set with Lolium multiflorum Lam. is on record as 5 (Herbicidal ratio of 90% or more (almost completely withered)). The “P: Stellaria media, herbicidal effect grade” value in the data set on Stellaria media [4] is 0 (Herbicidal ratio of 5% or lower (almost no effect)); in the data set with Stellaria media [7], 3 (Herbicidal ratio of 40% or higher and lower than 70%). Besides, the “R: Veronica persica, herbicidal effect grade” value in the data set with Veronica persica was 0 (Herbicidal ratio of 5% or lower (almost no effect)). For the same compound, the “b: directly sowed rice plant, effect on crop grade” value in the data set on rice and in the data set with rice plant was 5 (Herbicidal ratio of 90% or more (almost completely withered)) throughout. In addition, in the data set on wheat, the “e: wheat, effect on crop grade” value is 4 (Herbicidal ratio of 70% or higher and lower than 90%). The “H: Echinochloa crus-galli var. crus-galli, herbicidal effect grade” value in data set [5] is 5 (Herbicidal ratio of 90% or more (almost completely withered)). Moreover, in the data set on Amaranthus retroflexus, the “N: Amaranthus retroflexus, herbicidal effect grade” value (from here on “N: Amaranthus retroflexus”) is 3 (Herbicidal ratio of 40% or higher and lower than 70%). The “O: Chenopodium album, herbicidal effect grade” value (“O: Chenopodium album” below) with Chenopodium album is 2 (Herbicidal ratio of 20% or higher and lower than 40%).

As to `Cc1cc(Br)cc(C)c1C1=C(O)CC(CC(=O)C(C)C)C1=O` (racemic) [10-003], the “Herbicidal effect grade, A: Echinochloa oryzacola Vasing.” value in data set [1] was 3 (Herbicidal ratio of 40% or higher and lower than 70%). The “Herbicidal effect grade, B” value in the data set on Scirpus juncoides is listed as 0 (Herbicidal ratio of 5% or lower (almost no effect)). Also, the “Herbicidal effect grade, C” value in the data set with Monochoria vaginalis is 0 (Herbicidal ratio of 5% or lower (almost no effect)). In data set [2], the “H (Echinochloa crus-galli var. crus-galli) herbicidal effect grade” value is reported as 5 (Herbicidal ratio of 90% or more (almost completely withered)). Besides, the “D (Leptochloa chinensis) herbicidal effect grade” value in the data set with Leptochloa chinensis was 4 (Herbicidal ratio of 70% or higher and lower than 90%). Besides, the “Herbicidal effect grade, F: Digitaria ciliaris” value in the data set with Digitaria ciliaris was 0 (Herbicidal ratio of 5% or lower (almost no effect)). For the same compound, the “Herbicidal effect grade, G: Setaria viridis” value in the data set with Setaria viridis was 4 (Herbicidal ratio of 70% or higher and lower than 90%). Moreover, in the data set with Avena fatua, the “Herbicidal effect grade, I: Avena fatua” value is recorded as 0 (Herbicidal ratio of 5% or lower (almost no effect)). Also, the “Herbicidal effect grade, J: Alopecurus myosuroides” value in the data set with Alopecurus myosuroides [3] is 3 (Herbicidal ratio of 40% or higher and lower than 70%). Besides, the “Herbicidal effect grade, K: Lolium multiflorum Lam.” value in the data set on Lolium multiflorum Lam. is 4 (Herbicidal ratio of 70% or higher and lower than 90%). Besides, in the data set on Stellaria media [4], the “Herbicidal effect grade, P: Stellaria media” value is 0 (Herbicidal ratio of 5% or lower (almost no effect)). The “Herbicidal effect grade, R: Veronica persica” value in the data set on Veronica persica is reported as 0 (Herbicidal ratio of 5% or lower (almost no effect)). In addition, the “Effect on crop grade, b: directly sowed rice plant” value in the data set with rice was 4 (Herbicidal ratio of 70% or higher and lower than 90%). Besides, in the data set on wheat, the “Effect on crop grade, e: wheat” value is listed as 0 (Herbicidal ratio of 5% or lower (almost no effect)). The “H: Echinochloa crus-galli var. crus-galli, herbicidal effect grade” value in [5] is listed as 5 (Herbicidal ratio of 90% or more (almost completely withered)). Further, the “J: Alopecurus myosuroides, herbicidal effect grade” value in the data set on Alopecurus myosuroides [6] was 3 (Herbicidal ratio of 40% or higher and lower than 70%). Moreover, the “N: Amaranthus retroflexus” value in the data set with Amaranthus retroflexus was 0 (Herbicidal ratio of 5% or lower (almost no effect)). For the same compound, the “O: Chenopodium album” value in the data set with Chenopodium album is on record as 0 (Herbicidal ratio of 5% or lower (almost no effect)). Besides, the “P: Stellaria media, herbicidal effect grade” value in the data set with Stellaria media [7] is given as 0 (Herbicidal ratio of 5% or lower (almost no effect)). Besides, the “b: directly sowed rice plant, effect on crop grade” value with rice plant is 4 (Herbicidal ratio of 70% or higher and lower than 90%).

Regarding `Cc1cc(Br)cc(C)c1C1=C(O)CC(CC(=O)C2CC2)C1=O` (racemic) [10-004], the “Herbicidal effect grade, A: Echinochloa oryzacola Vasing.” value in data set [1] is given as 5 (Herbicidal ratio of 90% or more (almost completely withered)). In the data set with Scirpus juncoides, the “Herbicidal effect grade, B” value is 0 (Herbicidal ratio of 5% or lower (almost no effect)). The “Herbicidal effect grade, C” value with Monochoria vaginalis is 0 (Herbicidal ratio of 5% or lower (almost no effect)). Further, the “H (Echinochloa crus-galli var. crus-galli) herbicidal effect grade” value in [2] was 5 (Herbicidal ratio of 90% or more (almost completely withered)). Moreover, in the data set on Leptochloa chinensis, the “D (Leptochloa chinensis) herbicidal effect grade” value was 5 (Herbicidal ratio of 90% or more (almost completely withered)). Further, the “Herbicidal effect grade, F: Digitaria ciliaris” value in the data set with Digitaria ciliaris is reported as 5 (Herbicidal ratio of 90% or more (almost completely withered)). Also, the “Herbicidal effect grade, G: Setaria viridis” value with Setaria viridis was 5 (Herbicidal ratio of 90% or more (almost completely withered)). For the same compound, in the data set with Avena fatua, the “Herbicidal effect grade, I: Avena fatua” value is 3 (Herbicidal ratio of 40% or higher and lower than 70%). In addition, in the data set with Alopecurus myosuroides [3], the “Herbicidal effect grade, J: Alopecurus myosuroides” value was 5 (Herbicidal ratio of 90% or more (almost completely withered)). In the data set with Lolium multiflorum Lam., the “Herbicidal effect grade, K: Lolium multiflorum Lam.” value is listed as 5 (Herbicidal ratio of 90% or more (almost completely withered)). In addition, the “Herbicidal effect grade, P: Stellaria media” value in the data set on Stellaria media [4] was 0 (Herbicidal ratio of 5% or lower (almost no effect)). Moreover, the “Herbicidal effect grade, R: Veronica persica” value with Veronica persica is 0 (Herbicidal ratio of 5% or lower (almost no effect)). The “Effect on crop grade, b: directly sowed rice plant” value with rice is 5 (Herbicidal ratio of 90% or more (almost completely withered)). In addition, in the data set with wheat, the “Effect on crop grade, e: wheat” value is recorded as 0 (Herbicidal ratio of 5% or lower (almost no effect)). In addition, the “H: Echinochloa crus-galli var. crus-galli, herbicidal effect grade” value in data set [5] is given as 5 (Herbicidal ratio of 90% or more (almost completely withered)). Moreover, in the data set with Alopecurus myosuroides [6], the “J: Alopecurus myosuroides, herbicidal effect grade” value is given as 5 (Herbicidal ratio of 90% or more (almost completely withered)). Also, in the data set with Amaranthus retroflexus, the “N: Amaranthus retroflexus” value is on record as 0 (Herbicidal ratio of 5% or lower (almost no effect)). Further, the “O: Chenopodium album” value in the data set on Chenopodium album was 0 (Herbicidal ratio of 5% or lower (almost no effect)). The “P: Stellaria media, herbicidal effect grade” value in the data set on Stellaria media [7] is listed as 0 (Herbicidal ratio of 5% or lower (almost no effect)). Besides, the “b: directly sowed rice plant, effect on crop grade” value in the data set with rice plant is recorded as 5 (Herbicidal ratio of 90% or more (almost completely withered)).
